Measurements as given in US10053468B2, “Heterocyclic compound” (TAKEDA PHARMACEUTICAL COMPANY LIMITED, priority 2013, dated 2018).
Like-named read-outs stand apart in the source and are kept apart here.

Tests used:
RORγt [1] = molecular target: T1, RORγt (Homo sapiens, UniProt P51449); assay: RORγt binding test using fluorescent-labeled cholesterol (TR-FRET); details: read-out: Binding inhibitory rate of fluorescent-labeled cholesterol to RORγt at test compound 1 μM (%)
T1 sequence (P51449 1-497 isoform P51449-2): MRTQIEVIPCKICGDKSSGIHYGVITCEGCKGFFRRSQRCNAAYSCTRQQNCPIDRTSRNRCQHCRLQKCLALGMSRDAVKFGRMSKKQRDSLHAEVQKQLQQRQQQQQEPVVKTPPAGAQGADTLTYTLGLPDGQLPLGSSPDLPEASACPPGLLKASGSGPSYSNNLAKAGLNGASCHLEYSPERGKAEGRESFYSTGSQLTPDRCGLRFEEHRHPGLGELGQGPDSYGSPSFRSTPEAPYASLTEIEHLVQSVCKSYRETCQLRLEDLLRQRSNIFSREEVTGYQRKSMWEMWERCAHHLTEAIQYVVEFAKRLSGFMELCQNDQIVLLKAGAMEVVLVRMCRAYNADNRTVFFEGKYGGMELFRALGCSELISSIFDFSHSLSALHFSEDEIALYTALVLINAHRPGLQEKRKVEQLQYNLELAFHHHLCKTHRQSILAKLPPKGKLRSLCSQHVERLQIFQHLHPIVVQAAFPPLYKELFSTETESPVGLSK
Procedure: RORγt Binding Test Using Fluorescent-labeled Cholesterol
The binding activity of the test compound to RORγt was measured by a time resolved fluorescence resonance energy transfer method (TR-FRET) utilizing histidine-tagged RORγt, fluorescent-labeled cholesterol (BODIPY-cholesterol, AVIVA), and terbium-labeled anti-histidine tag antibody (Invitrogen). First, a test compound diluted with an assay buffer (20 mM Tris-HCl (pH 7.5), 100 mM NaCl, 1 mM DTT, 0.1% BSA) was added to a 384 well plate by 3 μL. Then, RORγt diluted with an assay buffer to 240 nM was added by 3 μL, after which fluorescent-labeled cholesterol diluted with the assay buffer to 12 μM was added by 3 μL, and the mixture was stood at room temperature for 20 min. Thereafter, a terbium-labeled anti-histidine tag antibody diluted with the assay buffer to 8 nM was added by 3 μL. The mixture was stood at room temperature for 20 min, and fluorescence intensity (excitation wavelength 320 nm, fluorescence wavelength 520 nm, delay time 100 microseconds) was measured by Envision (PerkinElmer).

RORγt [2] = molecular target: T1, RORγt; assay: Cofactor recruitment test (Alpha Screen, biotinylated SRC-1 peptide); format: biochemical; details: read-out: Signal value inhibitory rate at test compound 1 μM (%)
Procedure: Cofactor Recruitment Test
Cofactor recruitment test was performed by Alpha Screen (Histidine Detection Kit, PerkinElmer) method. First, a test compound was diluted with an assay buffer (50 mM Tris-HCl (pH 7.5), 50 mM KCl, 1 mM DTT, 0.1% BSA) and added to a 384 well plate by 5 μL. […] The mixture was stood in a dark place for 1 hr, and the signal value was measured by Envision (PerkinElmer).

RORγt [3] = molecular target: T1, RORγt; assay: Jurkat reporter test (human IL-17 ROR response element luciferase, RORγt vector); format: cell-based; details: read-out: Luminescence level inhibitory rate at test compound 3 μM (%)
Procedure: The Jurkat cells used for the reporter test were cultured in a culture medium (RPMI (Invitrogen), 10% FCS (AusGeneX), 100 U/mL penicillin, 100 μg/mL streptomycin). On the day of the test, 4×10^7 cells were recovered by a centrifugal operation (1000 rpm, 5 min.) and suspended in PBS (phosphate buffered saline) (Invitrogen). Thereafter, the cells were recovered again by a centrifugal operation, and suspended in 2 mL of R buffer (NEON transfection kit, Invitrogen). […] Gene transfer was performed by Electroporation apparatus (NEON, Invitrogen) under the conditions of pulse voltage 1350 V, interval 10 milliseconds, number of times 3. The cells after gene transfer were suspended in 40 mL of a reaction medium (RPMI, 10% Lipid reduced FCS (HyClone), 10 mM HEPES (pH 7.5), 100 U/mL penicillin, 100 μg/mL streptomycin, 5 μM lovastatin), and plated in a 96 well plate by 90 μL. A test compound diluted with the reaction medium was added by 10 μL, and the cells were cultured overnight in an incubator. Bright-Glo (Promega) was added by 100 μL, and the mixture was stirred at room temperature for 10 min, and the luminescence level was measured by Envision (PerkinElmer).

[4] = test compound 3 μM, Jurkat cells

inhibition at 3 µM (RORγt [3]; [4]) [%] | SMILES | inhibition at 1 µM (RORγt [1]) [%] | inhibition at 1 µM (RORγt [2]) [%] | inhibition at 3 µM (RORγt [3]; Jurkat) [%]
90 | COc1ccc2c(c1)CCN(C(=O)CCCC(=O)O)[C@H]2C(=O)Nc1cc(F)c(C(C)(C)COCC2CC2)c(F)c1 [Example 161, 5-((1R)-1-((4-(1-(cyclopropylmethoxy)-2-methylpropan-2-yl)-3,5-difluorophenyl)carbamoyl)-6-methoxy-3,4-dihydroisoquinolin-2 (1H)-yl)-5-oxopentanoic acid] | 100 | 76 | –
95 | COc1ccc2c(c1)CCN(C(=O)CCCC(=O)O)[C@H]2C(=O)Nc1cc(F)c(C(C)(C)COCC(F)F)c(F)c1 [Example 162, 5-((1R)-1-((4-(1-(2,2-difluoroethoxy)-2-methylpropan-2-yl)-3,5-difluorophenyl)carbamoyl)-6-methoxy-3,4-dihydroisoquinolin-2(1H)-yl)-5-oxopentanoic acid] | 99 | 82 | –
101 | CCOc1ccc2c(c1)CCN(C(=O)CCCC(=O)O)[C@H]2C(=O)Nc1cc(F)c(C(C)(C)COC)c(F)c1 [Example 164, 5-((1R)-1-((3,5-difluoro-4-(1-methoxy-2-methylpropan-2-yl)phenyl)carbamoyl)-6-ethoxy-3,4-dihydroisoquinolin-2(1H)-yl)-5-oxopentanoic acid] | 101 | 96 | –
101 | CCOc1ccc2c(c1)CCN(C(=O)Cc1cc(O)no1)[C@H]2C(=O)Nc1cc(F)c(C(C)(C)COC)c(F)c1 [Example 165, (1R)-N-(3,5-difluoro-4-(1-methoxy-2-methylpropan-2-yl)phenyl)-6-ethoxy-2-((3-hydroxy-1,2-oxazol-5-yl)acetyl)-1,2,3,4-tetrahydroisoquinoline-1-carboxamide] | 101 | 96 | –
99 | CCOCC(C)(C)c1c(F)cc(NC(=O)[C@H]2c3ccc(OCC)cc3CCN2C(=O)Cc2cc(O)no2)cc1F [Example 168, (1R)-6-ethoxy-N-(4-(1-ethoxy-2-methylpropan-2-yl)-3,5-difluorophenyl)-2-((3-hydroxy-1,2-oxazol-5-yl)acetyl)-1,2,3,4-tetrahydroisoquinoline-1-carboxamide] | 97 | 86 | –

The remaining lines, values behind:

SMILES | inhibition at 3 µM (RORγt [3]; [4]) [%] | inhibition at 1 µM (RORγt [1]) [%] | inhibition at 1 µM (RORγt [2]) [%] | inhibition at 3 µM (RORγt [3]; Jurkat) [%]
COc1ccc2c(c1)CCN(C(=O)Cc1cc(O)no1)[C@H]2C(=O)Nc1cc(F)c([Si](C)(C)C)c(F)c1 [Example 85, (1R)-N-(3,5-difluoro-4-(trimethylsilyl)phenyl)-2-((3-hydroxy-1,2-oxazol-5-yl)acetyl)-6-methoxy-1,2,3,4-tetrahydroisoquinoline-1-carboxamide] | – | 103 | 99 | 101
CC[Si](C)(C)c1c(F)cc(NC(=O)[C@H]2c3ccc(OC)cc3CCN2C(=O)CCC(=O)O)cc1F [Example 87, 4-((1R)-1-((4-(ethyl (dimethyl)silyl)-3,5-difluorophenyl)carbamoyl)-6-methoxy-3,4-dihydroisoquinolin-2 (1H)-yl)-4-oxobutanoic acid] | – | 102 | 98 | 102
CC[Si](C)(C)c1c(F)cc(NC(=O)[C@H]2c3ccc(OC)nc3CCN2C(=O)Cc2cc(O)no2)cc1F [Example 113, (5R)-N-(4-(ethyl (dimethyl)silyl)-3,5-difluorophenyl)-6-((3-hydroxy-1,2-oxazol-5-yl)acetyl)-2-methoxy-5,6,7,8-tetrahydro-1,6-naphthyridine-5-carboxamide] | – | 104 | 99 | 101
COc1ccc2c(n1)CCN(C(=O)c1cc(O)no1)[C@H]2C(=O)Nc1cc(F)c([Si](C)(C)C)c(F)c1 [Example 122, (5R)-N-(3,5-difluoro-4-(trimethylsilyl)phenyl)-6-((3-hydroxy-1,2-oxazol-5-yl)carbonyl)-2-methoxy-5,6,7,8-tetrahydro-1,6-naphthyridine-5-carboxamide] | – | 102 | 99 | 103
COc1ccc2c(n1)CCN(C(=O)Cc1cc(O)no1)[C@H]2C(=O)Nc1cc(F)c([Si](C)(C)C)c(F)c1 [Example 124, (5R)-N-(3,5-difluoro-4-(trimethylsilyl)phenyl)-6-((3-hydroxy-1,2-oxazol-5-yl)acetyl)-2-methoxy-5,6,7,8-tetrahydro-1,6-naphthyridine-5-carboxamide] | – | 101 | 99 | 102
CCOc1ccc2c(n1)CCN(C(=O)Cc1cc(O)no1)[C@H]2C(=O)Nc1cc(F)c([Si](C)(C)C)c(F)c1 [Example 128, (5R)-N-(3,5-difluoro-4-(trimethylsilyl)phenyl)-2-ethoxy-6-((3-hydroxy-1,2-oxazol-5-yl)acetyl)-5,6,7,8-tetrahydro-1,6-naphthyridine-5-carboxamide] | – | 103 | 100 | 103
CCOc1ccc2c(n1)CCN(C(=O)c1cc(O)no1)[C@H]2C(=O)Nc1cc(F)c2c(c1)CCC2(C)C [Example 145, (5R)-2-ethoxy-N-(7-fluoro-1,1-dimethyl-2,3-dihydro-1H-inden-5-yl)-6-((3-hydroxy-1,2-oxazol-5-yl)carbonyl)-5,6,7,8-tetrahydro-1,6-naphthyridine-5-carboxamide] | 100 | 102 | 92 | –
CCOc1ccc2c(n1)CCN(C(=O)c1cc(O)no1)[C@H]2C(=O)Nc1ccc([Si](C)(C)C)c(F)c1 [Example 149, (5R)-2-ethoxy-N-(3-fluoro-4-(trimethylsilyl)phenyl)-6-((3-hydroxy-1,2-oxazol-5-yl)carbonyl)-5,6,7,8-tetrahydro-1,6-naphthyridine-5-carboxamide] | – | 103 | 99 | 103
COc1ccc2c(c1)CCN(C(=O)c1cc(O)no1)[C@H]2C(=O)Nc1cc(F)c(C(C)(C)COCC2CC2)c(F)c1 [Example 158, (1R)-N-(4-(1-(cyclopropylmethoxy)-2-methylpropan-2-yl)-3,5-difluorophenyl)-2-((3-hydroxy-1,2-oxazol-5-yl)carbonyl)-6-methoxy-1,2,3,4-tetrahydroisoquinoline-1-carboxamide] | 93 | 101 | 76 | –
COc1ccc2c(c1)CCN(C(=O)c1cc(O)no1)[C@H]2C(=O)Nc1cc(F)c(C(C)(C)COCC(F)F)c(F)c1 [Example 160, (1R)-N-(4-(1-(2,2-difluoroethoxy)-2-methylpropan-2-yl)-3,5-difluorophenyl)-2-((3-hydroxy-1,2-oxazol-5-yl)carbonyl)-6-methoxy-1,2,3,4-tetrahydroisoquinoline-1-carboxamide] | 98 | 100 | 82 | –
CC[Si](C)(C)c1c(F)cc(NC(=O)[C@H]2c3ccc(COC)nc3CCN2C(=O)Cc2cc(O)no2)cc1F [Example 173, (5R)-N-(4-(ethyl (dimethyl)silyl)-3,5-difluorophenyl)-6-((3-hydroxy-1,2-oxazol-5-yl)acetyl)-2-(methoxymethyl)-5,6,7,8-tetrahydro-1,6-naphthyridine-5-carboxamide] | – | 101 | 97 | 99
